# From patent US8378125B2, “Substance FKI-3864 and method for preparation thereof” (School Juridical Person Kitasato Institute, priority 2008, dated 2013)
# Like-named read-outs stand apart in the source and are kept apart here.
# What was measured:
# [1] = tested on: synthesis of intracellular triacylglycerols; assay: Inhibitory activity on the synthesis of intracellular triacylglycerols, [14C] oleic acid incorporation in CHO-K1 cells; assay type: cell-based, Chinese hamster; conditions: [1-14C] oleic acid, 6 hours incubation, read-out: IC50, inhibition of formation of [14C] triacylglycerols
# Procedure: The inhibitory activity on the synthesis of intracellular triacylglycerols of substance FKI-3864 according to the invention was tested in the manner described below.
# Chinese hamster ovary cells (CHO-K1 cells) adjusted to 5.0×10^5 cells/mL with HAMs F12 medium (10% FBS, containing Penicillin/Streptomycin) were distributed on a 48-well plate in aliquots of 250 μL.
# Then, after the cells were incubated at 37° C. for 12 hours in a 5% carbon dioxide gas incubator to adhere the cells, substance FKI-3864 (2.5 μL as a methanol solution) and [1−^14C] oleic acid (5 μL, 1.85 kBq, 1 nmol) were added, and incubation was continued for additional 6 hours.
# The supernatant of the culture was removed, and after 0.1% SDS-Tris/HCl (pH 7.5, 120 μL) was added for lysis of the cells, neutral fat in the cells was extracted by the Bligh & Dyer method. After the extract was concentrated, it was spotted on a TLC (silica gel plate, Merck, 0.5 mm in thickness) and developed with a solvent of hexane/diethyl ether/acetic acid (70:30:1, v/v/v), and the quantity of isolated [^14C] triacylglycerols was determined with BAS 2000 (Fuji Film).
# Using the same manner as in Test 1, the inhibitory activities on the synthesis of intracellular triacylglycerols of substances FKI-3864-1 and FKI-3864-2 were measured. […] In addition, the activities of mixtures in which substances FKI-3864-1 and FKI-3864-2 were mixed at different ratios are shown in Table 2.
# [2] = Solubility in solvents; assay type: physicochemical
# Description: (7) Solubility in solvents: Soluble in methanol, chloroform, and ethyl acetate; insoluble in water.
Compound,IC50 [1] [µM],"Solubility in solvents: methanol, chloroform, and ethyl acetate [2]",Solubility in solvents: water [2],"IC50 ([1]; Cricetulus griseus, CHO-K1, 6 h) [µM]"
"CCCCCC(O)CC(O)CC1Cc2cc3cc(OC)c(-c4c(OC)cc5cc6c(c(O)c5c4O)C(=O)OC(CC(O)CC(O)CCCCC)C6)c(O)c3c(O)c2C(=O)O1 (single isomer, unassigned) [FKI-3864-1]",≥ 12,Soluble,insoluble,–
"CCCCCC(O)CC(O)CC1Cc2cc3cc(OC)c(-c4c(OC)cc5cc6c(c(O)c5c4O)C(=O)OC(CC(O)CC(O)CCCCC)C6)c(O)c3c(O)c2C(=O)O1 (single isomer, unassigned) [FKI-3864-2]",0.54,Soluble,insoluble,–
CCCCCC(O)CC(O)CC1Cc2cc3cc(OC)c(-c4c(OC)cc5cc6c(c(O)c5c4O)C(=O)OC(CC(O)CC(O)CCCCC)C6)c(O)c3c(O)c2C(=O)O1 (stereo not drawn) [FKI-3864],–,Soluble,insoluble,0.093
